Source: PubChem BioAssay (NCI)
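Each compound was tested at five concentrations against cells in 96-well plates for 48 hours. TGI marks complete inhibition of growth.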

Key:
Assay in all cases: DTP human tumour cell line panel, 48 h
SF-539 CNS = system: SF-539 CNS
MOLT-4 leukemia = system: MOLT-4 leukemia
SNB-19 CNS = system: SNB-19 CNS
IGROV1 ovarian = system: IGROV1 ovarian
HCT-116 colon = system: HCT-116 colon
KM12 colon = system: KM12 colon
OVCAR-3 ovarian = system: OVCAR-3 ovarian
HCT-15 colon = system: HCT-15 colon
EKVX NSCLC = system: EKVX NSCLC
NCI-H23 lung = system: NCI-H23 lung
SF-268 CNS = system: SF-268 CNS
SK-OV-3 ovarian = system: SK-OV-3 ovarian
HOP-92 NSCLC = system: HOP-92 NSCLC
A549 NSCLC = system: A549 NSCLC
SN12C renal = system: SN12C renal

SMILES	TGI (SF-539 CNS) [µM]	TGI (MOLT-4 leukemia) [µM]	TGI (SNB-19 CNS) [µM]	TGI (IGROV1 ovarian) [µM]	TGI (HCT-116 colon) [µM]	TGI (KM12 colon) [µM]	TGI (OVCAR-3 ovarian) [µM]	TGI (HCT-15 colon) [µM]	TGI (EKVX NSCLC) [µM]	TGI (NCI-H23 lung) [µM]	TGI (SF-268 CNS) [µM]	TGI (SK-OV-3 ovarian) [µM]	TGI (HOP-92 NSCLC) [µM]	TGI (A549 NSCLC) [µM]	TGI (SN12C renal) [µM]
CCN(CC)CCC(=O)c1ccc(Oc2ccccc2)cc1	34	48.4	38.2	33.3	36.1	27.4	45.3	35.6	41.4	78.5	55.9	> 100	30.1	> 100	31.4
CC(C)CCCC(C)[C@H]1CC[C@H]2[C@@H]3CC[C@H]4C[C@@H](CCC=C(c5cc(Cl)c(O)c(C(=O)O)c5)c5cc(Cl)c(O)c(C(=O)O)c5)CC[C@]4(C)[C@H]3CC[C@]12C (stereo not given in full) (tested in a mixture with another compound)	> 50	> 50	> 50	> 50	> 50	> 50	> 50	> 50	> 50	> 50	> 50	> 50	> 50	> 50	> 50
O=C1c2ccccc2-c2c1c(-c1ccccc1)c1n2C2(C(=O)c3ccccc3C2=O)C2C(=O)N(c3ccccc3)C(=O)C12 (stereo not given)	37.5	> 100	> 100	> 100	37.8	47.9	51.1	42.8	> 100	37.4	65.6	> 100	73.7	> 100	61.4
CC1CC(C)(O)CC(C(O)CC2CC(=O)NC(=O)C2)C1=O (stereo not given)	0.226	0.229	2.24	1.55	0.704	1.41	3.43	2.94	3.45	1.56	> 69.3	2.45	0.625	7.19	0.64
C/C1=C\CC/C(C)=C/C=C(/C(C)C)CC/C(C(=O)O)=C/CC1	> 100	> 100	> 100	> 100	> 100	> 100	59.5	> 100	> 100	> 100	> 100	98.2	> 100	> 100	> 100
CC[N+]1(C)CCC(O)(/C=C/c2ccc(Cl)cc2)C(C(=O)/C=C/c2ccc(Cl)cc2)C1 (stereo not given)	> 20.5	6.52	17.4	> 22.4	29.1	10.3	> 61	> 51.6	> 57.3	30.3	> 60.6	36.8	9.11	43	27.1
O=Cc1ccc(-c2cccc([N+](=O)[O-])c2)s1	> 100	> 100	> 100	> 100	> 100	> 100	> 100	> 100	> 100	> 100	> 100	> 100	> 100	> 100	> 100
Clc1ccccc1-c1nnc2c(-c3ccccc3)nc3ccccc3n12	> 100	> 100	> 100	> 100	> 100	> 100	> 100	> 100	> 100	> 100	> 100	> 100	> 100	> 100	> 100
CC(C)(C)c1cc(C(=O)/C=C/c2ccc3c(c2)CCO3)cc(C(C)(C)C)c1O	1.46	> 31.3	> 82.3	> 100	> 33.7	3.66	> 100	> 25.9	> 100	> 24.5	24.5	> 80.3	> 100	22.9	> 33.9
COC(=O)CCC(C)C1CCC2C3CCC4CC5CCC4(C)C3(O5)C(Br)C(Br)C12C (stereo not given)	> 100	> 100	> 100	> 100	> 100	> 100	> 100	> 100	> 100	> 100	> 100	> 100	> 100	> 100	> 100
Clc1ccc(-c2nc3ccc(C45CC6CC(CC(C6)C4)C5)cc3[nH]2)cc1	> 100	> 100	> 100	> 100	> 100	> 100	> 100	> 72.8	> 100	> 100	> 100	> 100	> 95.3	> 100	> 100
Cc1ccc(S(=O)(=O)c2c3[nH]c4ccccc4nc3n3c2nc2ccccc23)cc1	> 100	> 100	> 100	> 100	> 100	> 100	> 100	> 100	> 100	> 100	> 100	> 100	> 100	> 100	> 100
CCCCCCCCCC1CC(=O)NCC(=O)NC(C(C)C)C(=O)NC(CC(C)C)C(=O)NC(C)C(=O)NC(C(C)C)C(=O)O1 (stereo not given)	43.4	> 52.4	> 48.2	> 100	> 66.3	33.9	28.8	> 100	> 79.9	42.2	16.1	39.2	41.9	40.9	80.2
CN(C)c1ccc(N=Nc2cccc3ncccc23)cc1	> 100	> 100	> 100	> 100	> 100	> 100	> 100	> 100	> 100	> 100	> 100	> 100	> 100	> 100	> 100
COc1ccc(CCc2ccccc2CC(=O)O)cc1	> 100	> 100	> 100	> 100	> 100	> 100	> 100	> 100	> 100	> 100	> 100	> 100	> 100	> 100	> 100
O=C1C(=C(C(=O)c2ccccc2)C(=O)c2ccccc2)OC(c2ccccc2)=C1C(=O)c1ccccc1	22.3	9.86	> 100	8.84	14.1	42.3	23	14.9	34.8	25.8	34.8	34.6	31.6	51.6	19.2
CCCCCCCSCC1C(=O)C23C(O)C1CCC2C12COC3(O)C(O)C1C(C)(C)CCC2O (stereo not given)	29.3	28.2	33.9	36.2	18.7	23.9	30.3	22.4	32.9	34	33.9	32	31.8	39.3	23.6
Cc1cc(-c2nc3cc(O)ccc3s2)ccc1N	49.3	> 100	> 100	> 100	42.7	66.6	67.3	> 100	60.1	> 100	> 100	77.1	> 100	> 100	74.2
CC1=NN(C(=O)c2ccc(Cl)cc2)C(=O)/C1=C/c1ccc(O)cc1	> 100	> 100	> 100	> 100	> 100	> 100	> 100	> 100	> 100	> 100	> 100	> 100	> 100	> 100	> 100
C=CCCCCCC(O)C(O)C/C=C\C/C=C\CC (stereo not given)	> 18.8	> 18.8	> 18.8	> 18.8	> 18.8	> 18.8	> 18.8	> 18.8	> 18.8	> 18.8	> 18.8	> 18.8	> 18.8	> 18.8	> 18.8
COc1ccc(/C=C2\CN(C)CC3C2=NC(=S)NC3c2ccc(OC)cc2)cc1 (stereo not given)	59.5	> 81.1	> 100	> 22.6	> 44.7	> 65.8	10.3	> 100	> 100	> 94.1	> 100	> 100	94.3	> 100	> 100
CN(C)CCCNc1ccc2nnn3c4ccc(OC(=O)c5ccc([N+](=O)[O-])cc5)cc4c(=O)c1c23	19.3	33.2	22.8	> 100	32.7	21.3	24.1	24.1	25.1	24.5	21.9	26.7	> 57.6	20.6	19.6
O=[N+]([O-])c1ccc(NC(=S)Nc2ccccn2)cc1	55.5	> 100	> 100	> 100	> 100	> 55.6	99.4	> 100	> 85.6	> 100	> 91.7	> 100	> 100	> 100	> 100
